Experimental data as given in patent US20080096861A1, “Chemical Compounds” (SMITHKLINE BEECHAM CORPORATION, priority 2004, published 2008).
pIC50: −log10 of the molar value.

Tested on: HIV-1 IIIB
Experiment: HOS HIV-1 infectivity assay
Type: cell-based
Conditions: Human immunodeficiency virus 1, IIIB; as determined by the infectivity assay; strain not stated in Table 2; read-out: Activity Level
Procedure: Compounds were profiled against two HIV-1 viruses, the M-tropic (CCR5 utilizing) Ba-L strain and the T-tropic (CXCR4 utilizing) IIIB strain. Both viruses were propagated in human peripheral blood lymphocytes. Compounds were tested for there ability to block infection of the HOS cell line (expressing hCXCR4/hCCR5/hCD4/pHIV-LTR-luciferase) by either HIV-1 Ba-L or HIV-1 IIIB. Compound cytotoxicity was also examined in the absence of virus addition.
HOS cells (expressing hCXCR4/hCCR5/hCD4/pHIV-LTR-luciferase) were harvested and diluted in Dulbeccos modified Eagles media supplemented with 2% FCS and non-essential amino acid to a concentration of 60,000 cells/ml. The cells were plated into 96-well plates (100 ul per well) and the plates were placed in a tissue culture incubator (37° C.; 5% CO2/95% air) for a period of 24 h.
Subsequently, 50 ul of the desired drug solution (4 times the final concentration) was added to each well and the plates were returned to the tissue culture incubator (37° C.; 5% CO2/95% air) for 1 h. Following this incubation 50 ul of diluted virus was added to each well (approximately 2 million RLU per well of virus). The plates were returned to the tissue culture incubator (37° C.; 5% CO2/95% air) and were incubated for a further 96 h.
Following this incubation the endpoint for the virally infected cultures was quantified following addition of Steady-Glo Luciferase assay system reagent (Promega, Madison, Wis.). Cell viability or non-infected cultures was measured using a CellTiter-Glo luminescent cell viability assay system (Promega, Madison, Wis.). All luminescent readouts are performed on a Topcount luminescence detector (Packard, Meridien, Conn.).

pIC50, > 7.00:
CN(C)CC(C)(C)Cn1c(CN(C)C2CCCc3cccnc32)nc2ccccc21 (stereo not shown) [Example 67, N-({1-[3-(Dimethylamino)-2,2-dimethylpropyl]-1H-benzimidazol-2-yl}methyl)-N-methyl-5,6,7,8-tetrahydro-8-quinolinamine]
CN(Cc1nc2ccccc2n1CC(C)(C)CNC(=N)N)C1CCCc2cccnc21 (stereo not shown) [Example 68, N-[2,2-Dimethyl-3-(2-{[methyl(5,6,7,8-tetrahydro-8-quinolinyl)amino]methyl}-1H-benzimidazol-1-yl)propyl]guanidine]
CN(Cc1nc2ccccc2n1C[C@@H]1CCCNC1)[C@H]1CCCc2cccnc21 [Example 75e, (8S)—N-Methyl-N-({1-[(3R)-3-piperidinylmethyl]-1H-benzimidazol-2-yl}methyl)-5,6,7,8-tetrahydro-8-quinolinamine]
CN1CCC[C@@H](Cn2c(CN(C)[C@H]3CCCc4cccnc43)nc3ccccc32)C1 [Example 75f, (8S)—N-Methyl-N-[(1-{[(3R)-1-methyl-3-piperidinyl]methyl}-1H-benzimidazol-2-yl)methyl]-5,6,7,8-tetrahydro-8-quinolinamine]
CC(C)N1CCC[C@@H](Cn2c(CN(C)[C@@H]3CCCc4cccnc43)nc3ccccc32)C1 [Example 79, (8R)—N-Methyl-N-[(1-{[(3R)-1-(1-methylethyl)-3-piperidinyl]methyl}-1H-benzimidazol-2-yl)methyl]-5,6,7,8-tetrahydro-8-quinolinamine]
CC(C)CCN1CCC[C@@H](Cn2c(CN(C)[C@H]3CCCc4cccnc43)nc3ccccc32)C1 [Example 80, (8S)—N-Methyl-N-[(1-{[(3R)-1-(3-methylbutyl)-3-piperidinyl]methyl}-1H-benzimidazol-2-yl)methyl]-5,6,7,8-tetrahydro-8-quinolinamine]
CC(C)N1CCC[C@@H](Cn2c(CN(C)[C@H]3CCCc4cccnc43)nc3ccccc32)C1 [Example 81, (8S)—N-Methyl-N-[(1-{[(3R)-1-(1-methylethyl)-3-piperidinyl]methyl}-1H-benzimidazol-2-yl)methyl]-5,6,7,8-tetrahydro-8-quinolinamine]
CC(C)CCN1CCC[C@H](Cn2c(CN(C)[C@@H]3CCCc4cccnc43)nc3ccccc32)C1 [Example 82, (8R)—N-Methyl-N-[(1-{[(3S)-1-(3-methylbutyl)-3-piperidinyl]methyl}-1H-benzimidazol-2-yl)methyl]-5,6,7,8-tetrahydro-8-quinolinamine]
CC(C)N1CCC[C@H](Cn2c(CN(C)[C@@H]3CCCc4cccnc43)nc3ccccc32)C1 [Example 83, (8R)—N-methyl-N-[(1-{[(3S)-1-(1-methylethyl)-3-piperidinyl]methyl}-1H-benzimidazol-2-yl)methyl]-5,6,7,8-tetrahydro-8-quinolinamine]
CC(C)CCN1CCC[C@H](Cn2c(CN(C)[C@H]3CCCc4cccnc43)nc3ccccc32)C1 [Example 84, (8S)—N-Methyl-N-[(1-{[(3S)-1-(3-methylbutyl)-3-piperidinyl]methyl}-1H-benzimidazol-2-yl)methyl]-5,6,7,8-tetrahydro-8-quinolinamine]
CC(C)N1CCC[C@H](Cn2c(CN(C)[C@H]3CCCc4cccnc43)nc3ccccc32)C1 [Example 85, (8S)—N-Methyl-N-[(1-{[(3S)-1-(1-methylethyl)-3-piperidinyl]methyl}-1H-benzimidazol-2-yl)methyl]-5,6,7,8-tetrahydro-8-quinolinamine]
CN(Cc1nc2ccccc2n1C[C@@H]1CCCN(C(=N)N)C1)[C@H]1CCCc2cccnc21 [Example 87, (3S)-3-{[2-({Methyl[(8S)-5,6,7,8-tetrahydro-8-quinolinyl]amino}methyl)-1H-benzimidazol-1-yl]methyl}-1-piperidinecarboximidamide]
CN(Cc1nc2ccccc2n1C[C@H]1CCCN(C(=N)N)C1)[C@H]1CCCc2cccnc21 [Example 89, (3R)-3-{[2-({Methyl[(8S)-5,6,7,8-tetrahydro-8-quinolinyl]amino}methyl)-1H-benzimidazol-1-yl]methyl}-1-piperidinecarboximidamide]
CN(Cc1nc2ccccc2n1C[C@H]1CCCN(/C(N)=N/C#N)C1)[C@H]1CCCc2cccnc21 [Example 91, (3R)—N-Cyano-3-{[2-({methyl[(8S)-5,6,7,8-tetrahydro-8-quinolinyl]amino}methyl)-1H-benzimidazol-1-yl]methyl}-1-piperidinecarboximidamide]
CCCN(Cc1nc2ccccc2n1C[C@H]1CCCN(C)C1)[C@H]1CCCc2cccnc21 [Example 93, (8S)—N-[(1-{[(3S)-1-Methyl-3-piperidinyl]methyl}-1H-benzimidazol-2-yl)methyl]-N-propyl-5,6,7,8-tetrahydro-8-quinolinamine]

pIC50, 6.30 to 7.00:
CC(C)CCNCC(C)(C)Cn1c(CN(C)C2CCCc3cccnc32)nc2ccccc21 (stereo not shown) [Example 69, N-[(1-{2,2-Dimethyl-3-[(3-methylbutyl)amino]propyl}-1H-benzimidazol-2-yl)methyl]-N-methyl-5,6,7,8-tetrahydro-8-quinolinamine]
CN(Cc1nc2ccccc2n1CCn1ccnc1)C1CCCc2cccnc21 (stereo not shown) [Example 70, N-({1-[2-(1H-Imidazol-1-yl)ethyl]-1H-benzimidazol-2-yl}methyl)-N-methyl-5,6,7,8-tetrahydro-8-quinolinamine]
CN(Cc1nc2ccccc2n1CCc1cncn1C)C1CCCc2cccnc21 (stereo not shown) [Example 71, N-Methyl-N-({1-[2-(1-methyl-1H-imidazol-5-yl)ethyl]-1H-benzimidazol-2-yl}methyl)-5,6,7,8-tetrahydro-8-quinolinamine]
CN1CCC[C@H](Cn2c(CN(C)[C@@H]3CCCc4cccnc43)nc3ccccc32)C1 [Example 76, (8R)—N-Methyl-N-[(1-{[(3S)-1-methyl-3-piperidinyl]methyl}-1H-benzimidazol-2-yl)methyl]-5,6,7,8-tetrahydro-8-quinolinamine]
CN1CCC[C@@H](Cn2c(CN(C)[C@@H]3CCCc4cccnc43)nc3ccccc32)C1 [Example 77, (8R)—N-Methyl-N-[(1-{[(3R)-1-methyl-3-piperidinyl]methyl}-1H-benzimidazol-2-yl)methyl]-5,6,7,8-tetrahydro-8-quinolinamine]
CC(C)CCN1CCC[C@@H](Cn2c(CN(C)[C@@H]3CCCc4cccnc43)nc3ccccc32)C1 [Example 78, (8R)—N-Methyl-N-[(1-{[(3R)-1-(3-methylbutyl)-3-piperidinyl]methyl}-1H-benzimidazol-2-yl)methyl]-5,6,7,8-tetrahydro-8-quinolinamine]
CN(Cc1nc2ccccc2n1C[C@@H]1CCCN(C(=N)N)C1)[C@@H]1CCCc2cccnc21 [Example 86, (3S)-3-{[2-({Methyl[(8R)-5,6,7,8-tetrahydro-8-quinolinyl]amino}methyl)-1H-benzimidazol-1-yl]methyl}-1-piperidinecarboximidamide]
CN(Cc1nc2ccccc2n1C[C@H]1CCCN(C(=N)N)C1)[C@@H]1CCCc2cccnc21 [Example 88, (3R)-3-{[2-({Methyl[(8R)-5,6,7,8-tetrahydro-8-quinolinyl]amino}methyl)-1H-benzimidazol-1-yl]methyl}-1-piperidinecarboximidamide]
CCCN/C(=N\C#N)N1CCC[C@H](Cn2c(CN(C)[C@H]3CCCc4cccnc43)nc3ccccc32)C1 [Example 90, (3R)—N-Cyano-3-{[2-({methyl[(8S)-5,6,7,8-tetrahydro-8-quinolinyl]amino}methyl)-1H-benzimidazol-1-yl]methyl}-N′-propyl-1-piperidinecarboximidamide]
CN(C)/C(=N\C#N)N1CCC[C@H](Cn2c(CN(C)[C@H]3CCCc4cccnc43)nc3ccccc32)C1 [Example 92, (3R)—N′-Cyano-N,N-dimethyl-3-{[2-({methyl[(8S)-5,6,7,8-tetrahydro-8-quinolinyl]amino}methyl)-1H-benzimidazol-1-yl]methyl}-1-piperidinecarboximidamide]

pIC50, 5.00 to 6.30:
CN(Cc1nc2ccccc2n1CCc1cn(C)cn1)C1CCCc2cccnc21 (stereo not shown) [Example 72, N-Methyl-N-({1-[2-(1-methyl-1H-imidazol-4-yl)ethyl]-1H-benzimidazol-2-yl}methyl)-5,6,7,8-tetrahydro-8-quinolinamine]
CN(C)Cc1ccc(-n2c(CN(C)C3CCCc4cccnc43)nc3ccccc32)cc1 (stereo not shown) [Example 73, N-[(1-{4-[(Dimethylamino)methyl]phenyl}-1H-benzimidazol-2-yl)methyl]-N-methyl-5,6,7,8-tetrahydro-8-quinolinamine]
CN(C)Cc1ccccc1-n1c(CN(C)C2CCCc3cccnc32)nc2ccccc21 (stereo not shown) [Example 74, N-[(1-{2-[(Dimethylamino)methyl]phenyl}-1H-benzimidazol-2-yl)methyl]-N-methyl-5,6,7,8-tetrahydro-8-quinolinamine]
